Assay results as given in patent US20050288264A2, “Dosage Regimen and Pharmaceutical Composition for Emergency Contraception” (priority 2001, published 2005).
Where two headings read alike, the source gives them in different places.

Format: in vivo, women
Experimental: The efficacy of the regimen according to this invention was compared with the known regimen administering 0.75-0.75 mg of levonorgestrel 12 hours apart in the following trials.
In a double-blind, randomized, multicentre, multinational trial 1,356 women received 0.75-0.75 mg of levonorgestrel at 12-hour interval in the traditional way, while 1,356 received in a single dose 1.5 ± 0.2 mg of levonorgestrel within 72 hours of the unprotected coitus.
The incidence of vomiting was 1.4% in both groups. As the new regimen also has the advantageous properties resulting from the lack of the estrogen component, the incidence of nausea, feeling of sickness, vomiting was apparently low.
The incidence of menstrual disorders was not increased either by the single administration of 1.5 mg dose of levonorgestrel compared to the administration of two 0.75 mg doses. The incidence of menstrual disorders was 30.9% in both groups.

C#C[C@]1(O)CC[C@H]2[C@@H]3CCC4=CC(=O)CC[C@@H]4[C@H]3CC[C@@]21CC [levonorgestrel]
Prevented fraction (percent of conception which otherwise might happen prevented by the treatment) (0.75-0.75 mg at 12-hour interval (traditional way)): 77.3%
conception rate (0.75-0.75 mg at 12-hour interval (traditional way), within 72 hours of unprotected coitus, 1,356 women): 1.77%
incidence of other side-effects (diarrhoea, fatigue, dizziness, headache, breast tenderness, lower abdominal pain) (in vivo): not differing significantly
Prevented fraction (percent of conception which otherwise might happen prevented by the treatment) (single dose 1.5 ± 0.2 mg): 81.9%
conception rate (single dose 1.5 ± 0.2 mg within 72 hours of unprotected coitus, 1,356 women): 1.47%
